“And” between values parts separate entries of the source, which are not always exact repeats. Equal values may be shown once.
What was measured:
[1] = system: sea lice, Lepeophtheirus salmonis; test: Dose titration study: efficacy of emamectin benzoate in feed against induced sea lice infestations on Atlantic salmon; type: in vivo; details: for Percentage fish mortality: mortality attributed to sea lice damage, includes culled fish
Description: (§1) Three studies were carried out at the Institute of Aquaculture Marine Environmental Research Laboratory in Machrihanish, Scotland. Atlantic salmon, Salmo salar L., post-smolts were obtained from a disease free stock and acclimatised at the test facility.
(§2) Fish were held in replicate groups in plastic fiber tanks, each with a volume of 0.54 m^3. Each tank was supplied with natural sea water at ambient temperature (7-14° C.) and salinity (30-35 ppt), at flow rates of approximately 18 l. min^−1. The tanks were fitted with mesh screens over the water outlet to retain uneaten fish pellets. Fish were observed daily for behavior and adverse drug reactions. Fish mortalities and the occurrence of gross sea lice damage were also recorded.
(§3) Sea lice were collected during harvesting on commercial salmon farms on the west coast of Scotland. Egg strings collected from gravid female lice were incubated in sea water at ambient temperature and within a salinity range of 32-35 ppt. Once the hatched larvae reached the copepodite stage, 38-170 copepodites per fish were introduced into each of four replicate tanks of fish and the water supply to each tank was turned off for approximately three hours to allow attachment of copepodites to the fish. This was repeated 4-5 times at intervals of 3-5 days until chalimus stages I, II, III and IV were present. Chalimus numbers were evaluated at day −1 or day −2 pre-treatment, on sub-samples of fish (N=6-9 fish per tank). At this point, fish were infested with pre-adult and adult lice, by adding 5-10 lice per fish to each tank. Water supplies to each tank were turned off for around one hour until all the lice had attached to the fish. Pre-treatment lice numbers were based on a sub-sample of the total population and presented as the mean number of chalimus per fish. Fish were then randomly re-distributed from the four original tanks to each control or treatment tank, as described in the experimental design for each study, and no further infestations were carried out during or after treatment.
(§4) The basal ration was Fulmar™ (BOCM Pauls Ltd.) 3.5 or 5 mm salmon feed pellets. Emamectin benzoate was dissolved in propylene glycol and mixed with fish oil prior to top coating the feed pellets. Control feeds were prepared in the same way with propylene glycol and fish oil. Treatment was administered at nominal dose rates of 0, 25, 50 and 100 μg kg^−1 fish biomass per day, at a feed rate of 0.5% biomass, for a period of seven consecutive days (days 0-6). Actual daily feed consumption was measured in each tank by collecting the uneaten feed pellets approximately thirty minutes after administration and subtracting the number of pellets from the daily ration fed. The mean dose consumed was calculated for each group as follows: [formula] Mean feed consumption (%)×nominal dose rate (μg·kg^−1)=Mean dose consumed (μg·kg^−1)
(§5) Evaluation of sea lice numbers was carried out at 7, 14 and 21 days from the start of treatment. Fish were anaesthetised in 40 mg·l^−1 ethyl-P-aminobenzoate (benzocaine) and each fish examined under a low power microscope. Lice were identified as chalimus I-IV, pre-adult I or II and adult stages. Pre-adults and adult lice were additionally identified as males or females. The numbers of each developmental stage were recorded. Any lice which detached in the anaesthetic solution were included in the counts and reattached to the fish after transferring them to fresh seawater. The fish were returned to the holding tanks after sampling and the same fish were evaluated at days 7, 14 and 21.
The water temperature was 7-10° C. and salinity was 33-34 ppt. Pre-treatment, mean fish weights were 192 g (±30 g S.D). Emamectin benzoate was administered at nominal daily dose rates of 0, 25, 50 and 100 μg kg^−1 fish biomass. There were two replicate tanks per treatment with a sample size of 19 or 20 fish per tank. […]

[2] = Daily observation of fish for behavior, adverse drug reactions and mortalities (three studies); type: in vivo, Atlantic salmon, Salmo salar L.; details: any of the doses tested (25, 50, 100 μg kg^−1 per day, 7 days in feed)
Description: as §2

[3] = system: sea lice, Lepeophtheirus salmonis; test: Dose confirmation study II: efficacy of emamectin benzoate in feed against induced sea lice infestations on Atlantic salmon; type: in vivo
Description: as §1, §2, §3, §4, §5
The water temperature was 9-12° C. and salinity was 30-34 ppt. Pre-treatment, mean fish weights were 418.2 g (±49 g S.D). Emamectin benzoate was administered at se rates of 0 and 50 μg kg^−1 biomass. There were three replicate tanks per treatment with a sample size of 15-16 fish per tank. […]

[4] = system: L. salmonis; test: All three studies summarised: oral treatment of Atlantic salmon against L. salmonis; type: in vivo, Lepeophtheirus salmonis
Description: as §1, §2, §3, §4, §5
Results were summarised as chalimus (chalimus stages I-IV), motile lice pre-adult and adult stages) and total lice (chalimus and motile stages combined). Data on the number of lice per fish were subjected to F-tests for homogeneity of variances and a correlation test to examine the normality of distribution. Fish weights and pre-treatment lice counts were tested by one-way ANOVA. […]

[5] = system: sea lice, Lepeophtheirus salmonis; test: Dose confirmation study I: efficacy of emamectin benzoate in feed against induced sea lice infestations on Atlantic salmon; type: in vivo; details: for Percentage fish mortality: mortality attributed to sea lice damage, includes culled fish
Description: as §1, §2, §3, §4, §5
The water temperature was 12-14° C. and salinity was 33-35 ppt. Pre-treatment, mean fish weights were 224 g (±43 g S.D). Emamectin benzoate was administered at nominal daily dose rates of 0, 25, and 50 μg kg^−1 biomass. There were three replicate tanks per treatment with 15 fish per tank. […]

[6] = nominal dose 25 μg·kg^−1/day (consumed 21.5) in feed Day 0-6, Day 7
[7] = nominal dose 25 μg·kg^−1/day (consumed 21.5) in feed Day 0-6, day 21
[8] = nominal dose 25 μg·kg^−1/day in feed Day 0-6, Day 14
[9] = nominal dose 25 μg·kg^−1/day in feed Day 0-6, Day 21
[10] = nominal dose 50 μg·kg^−1/day (consumed 45.0) in feed Day 0-6, Day 7
[11] = nominal dose 50 μg·kg^−1/day (consumed 45.0) in feed Day 0-6, day 21
[12] = nominal dose 50 μg·kg^−1/day in feed Day 0-6, Day 14
[13] = nominal dose 50 μg·kg^−1/day in feed Day 0-6, Day 21
[14] = nominal dose 100 μg·kg^−1/day (consumed 91.0) in feed Day 0-6, Day 7
[15] = nominal dose 100 μg·kg^−1/day (consumed 91.0) in feed Day 0-6, day 21
[16] = nominal dose 100 μg·kg^−1/day in feed Day 0-6, Day 14
[17] = nominal dose 100 μg·kg^−1/day in feed Day 0-6, Day 21
[18] = nominal dose 50 μg·kg^−1/day (consumed 45.7) in feed Day 0-6, Day 7
[19] = nominal dose 50 μg·kg^−1/day (consumed 45.7) in feed Day 0-6, day 21
[20] = dose rate 50 μg kg^−1, three studies
[21] = nominal dose 25 μg·kg^−1/day (consumed 20.2) in feed Day 0-6, Day 7
[22] = nominal dose 25 μg·kg^−1/day (consumed 20.2) in feed Day 0-6, day 21
[23] = nominal dose 50 μg·kg^−1/day (consumed 44.3) in feed Day 0-6, Day 7
[24] = nominal dose 50 μg·kg^−1/day (consumed 44.3) in feed Day 0-6, day 21

## emamectin benzoate
[1]; all treatment groups (25, 50, 100 μg kg^−1), day 7
  reduction of total numbers of lice per fish compared to the control groups: 35.4-37.5%
[1]; [6]
  % Reduction relative to controls (Total lice): 36.2%
  Mean Total lice (± S.D): 32.6 ± 10.7
  Mean chalimus (± S.D): 20.9 ± 8.6
  Mean motiles (± S.D): 11.7 ± 6.0
[1]; nominal dose 25 μg·kg^−1/day (consumed 21.5) in feed Day 0-6, Day 21
  % Reduction relative to controls (Total lice): 89.8%
[1]; [7]
  Percentage of fish with no lice present (chalimus or motiles): 13.8%
  Percentage of fish with no motile lice present: 55.0%
[1]; [8]
  % Reduction relative to controls (Total lice): 70.8%
  Mean Total lice (± S.D): 13.1 ± 6.9
  Mean chalimus (± S.D): 9.7 ± 3.9
  Mean motiles (± S.D): 3.4 ± 6.4
[1]; [9]
  Mean Total lice (± S.D): 3.5 ± 2.7
  Mean chalimus (± S.D): 2.4 ± 1.9
  Mean motiles (± S.D): 1.1 ± 2.2
[1]; nominal dose 25 μg·kg^−1/day
  Percentage fish mortality: 0%
[1]; [10]
  % Reduction relative to controls (Total lice): 37.5%
  Mean Total lice (± S.D): 31.9 ± 11.4
  Mean chalimus (± S.D): 24.8 ± 10.3
  Mean motiles (± S.D): 7.1 ± 4.1
[1]; nominal dose 50 μg·kg^−1/day (consumed 45.0) in feed Day 0-6, Day 21
  % Reduction relative to controls (Total lice): 95.2%
[1]; [11]
  Percentage of fish with no lice present (chalimus or motiles): 22.5%
  Percentage of fish with no motile lice present: 87.5%
[1]; [12]
  % Reduction relative to controls (Total lice): 70.3%
  Mean Total lice (± S.D): 13.4 ± 5.9
  Mean chalimus (± S.D): 12.4 ± 3.5
  Mean motiles (± S.D): 1.0 ± 1.2
[1]; [13]
  Mean Total lice (± S.D): 1.7 and 1.7 ± 1.3
  Mean chalimus (± S.D): 1.6 ± 1.5
  Mean motiles (± S.D): 0.1 ± 0.3
[1]; nominal dose 50 μg·kg^−1/day
  Percentage fish mortality: 0%
[1]; [14]
  % Reduction relative to controls (Total lice): 35.4%
  Mean Total lice (± S.D): 33.0 ± 10.7
  Mean chalimus (± S.D): 29.0 ± 9.8
  Mean motiles (± S.D): 4.0 ± 3.6
[1]; nominal dose 100 μg·kg^−1/day (consumed 91.0) in feed Day 0-6, Day 21
  % Reduction relative to controls (Total lice): 95.8%
[1]; [15]
  Percentage of fish with no lice present (chalimus or motiles): 28.2%
  Percentage of fish with no motile lice present: 87.0%
[1]; [16]
  % Reduction relative to controls (Total lice): 66.4%
  Mean Total lice (± S.D): 15.1 ± 5.8
  Mean chalimus (± S.D): 14.1 ± 5.5
  Mean motiles (± S.D): 1.0 ± 3.2
[1]; [17]
  Mean Total lice (± S.D): 1.5 ± 1.6
  Mean chalimus (± S.D): 1.2 ± 1.2
  Mean motiles (± S.D): 0.3 ± 1.0
[1]; nominal dose 100 μg·kg^−1/day
  Percentage fish mortality: 2.5%
[1]; treated groups (25, 50, 100 μg kg^−1), day 21
  mean numbers of motile lice in the treated groups: 0.1-1.1 per fish
[2]
  adverse effects or fish mortality attributed to treatment: No adverse effects or fish mortality
[3]; 50 μg kg^−1 groups, by day 21 (21% of control fish had lesions)
  cranial lesions resulting from sea lice activity: No cranial lesions
[3]; [18]
  % Reduction relative to controls (Total lice): 46% and 45.9%
  Mean Total lice (± S.D): 40.5 ± 12.2
  Mean chalimus (± S.D): 30.0 ± 11.8
  Mean motiles (± S.D): 10.5 ± 8.1
[3]; nominal dose 50 μg·kg^−1/day (consumed 45.7) in feed Day 0-6, Day 21
  % Reduction relative to controls (Total lice): 95% and 94.6%
[3]; [19]
  Percentage of fish with no lice present (chalimus or motiles): 27%
  Percentage of fish with no motile lice present: 66% and 66.3%
[3]; [12]
  % Reduction relative to controls (Total lice): 70.7%
  Mean Total lice (± S.D): 14.7 ± 5.9
  Mean chalimus (± S.D): 12.7 ± 5.7
  Mean motiles (± S.D): 2.0 ± 3.2
[3]; [13]
  Mean Total lice (± S.D): 2.1 and 2.1 ± 2.1
  Mean chalimus (± S.D): 1.5 ± 1.7
  Mean motiles (± S.D): 0.6 and 0.6 ± 1.1
[3]; nominal dose 50 μg·kg^−1/day, mortality figures include culled fish
  Percentage fish mortality: 0%
[4]; 50 μg kg^−1, day 7 from the start of medication, three studies
  reduction of motile lice numbers: 58-80%
[4]; [20]
  Percentage of fish with no motile lice present: ≤ 87%
  percentage of fish with no lice present of any stage: 20-30%
  reductions in sea lice numbers consistently achieved: 94-95%
[4]; oral treatment of Atlantic salmon
  efficacy against the immature chalimus stages: highly effective
[4]; oral treatment of Atlantic salmon, all three studies
  efficacy against the motile and chalimus stages of L. salmonis: very good efficacy
[5]; [21]
  % Reduction relative to controls (Total lice): 43.8%
  Mean Total lice (± S.D): 34.2 ± 15.8
  Mean chalimus (± S.D): 1.8 ± 1.7
  Mean motiles (± S.D): 32.4 ± 15.4
[5]; nominal dose 25 μg·kg^−1/day (consumed 20.2) in feed Day 0-6, Day 21
  % Reduction relative to controls (Total lice): 82% and 81.9%
[5]; [22]
  Percentage of fish with no lice present (chalimus or motiles): 3%
  Percentage of fish with no motile lice present: 6.1%
[5]; [8]
  % Reduction relative to controls (Total lice): 76.0%
  Mean Total lice (± S.D): 9.8 ± 4.4
  Mean chalimus (± S.D): 0.30
  Mean motiles (± S.D): 9.5 ± 4.4
[5]; [9]
  Mean Total lice (± S.D): 4.9 and 4.9 ± 3.1
  Mean chalimus (± S.D): 0
  Mean motiles (± S.D): 4.9 ± 3.1
[5]; nominal dose 25 μg·kg^−1/day
  Percentage fish mortality: 31%
[5]; [23]
  % Reduction relative to controls (Total lice): 53.8%
  Mean Total lice (± S.D): 28.1 ± 13.1
  Mean chalimus (± S.D): 3.2 ± 2.2
  Mean motiles (± S.D): 24.9 ± 13.2
[5]; nominal dose 50 μg·kg^−1/day (consumed 44.3) in feed Day 0-6, Day 21
  % Reduction relative to controls (Total lice): 94% and 94.3%
[5]; [24]
  Percentage of fish with no lice present (chalimus or motiles): 28.6%
  Percentage of fish with no motile lice present: 28.6%
[5]; [12]
  % Reduction relative to controls (Total lice): 88.0%
  Mean Total lice (± S.D): 4.9 ± 2.7
  Mean chalimus (± S.D): 0.6
  Mean motiles (± S.D): 4.3 ± 2.6
[5]; [13]
  Mean Total lice (± S.D): 1.6 and 1.6 ± 1.3
  Mean chalimus (± S.D): 0
  Mean motiles (± S.D): 1.6 ± 1.4
[5]; nominal dose 50 μg·kg^−1/day
  Percentage fish mortality: 27%
[5]; treated groups (25 and 50 μg kg^−1), day 7
  reduction of total mean numbers of lice compared to the control groups: 44-54%
[5]; treated groups (25 and 50 μg kg^−1), day 21
  total lice numbers lower than in the control groups: 82-94%

— patent US6486128B1, “Method of using emamectin to treat fish parasites” (Schering-Plough Veterinary Corporation, priority 1999, dated 2002)
